In article PMC8217011, “Natural brominated phenoxyphenols kill persistent and biofilm-incorporated cells of MRSA and other pathogenic bacteria” (Applied Microbiology and Biotechnology, 2020):
“And” between values parts separate entries of the source, which are not always exact repeats. Equal values may be shown once.

Key:
[1] = test system: Enterobacter cloacae isolate 3678; test: MIC determination (broth microdilution in LB medium); assay type: cell-based
Experimental: (§1) The minimal inhibitory concentration (MIC) has been determined according to the CSLI guidelines (CLSI [2012]). Briefly, in a sterile polystyrene U-bottom 96-well plate, a 2-fold serial dilution ranging from 100 to 0.78 μM of testing compounds has been prepared in 50 μL MHB. A freshly inoculated S. aureus culture was grown until OD600 nm of approx. 0.6 and diluted to 10^6 CFU/mL in MHB. Finally, 50 μL of the latter cell suspension was added to each well and then incubated statically for 18–24 h at 37 °C. MIC was determined using BacTiterGlo ATP assay (Promega, Madison, WI, USA) and Tecan Infinite F200 Pro (Tecan, Männedorf, Switzerland). Moxifloxacin and DMSO were used as positive and negative control, respectively. Sublethal concentrations of colistin (0.1 μM) were used in some experiments to increase the permeability of the gram-negative cell envelope for compound testing. For E. cloacae, a broth microdilution assay was performed using a serial 2-fold dilution in 96-well flat-bottomed plates (Falcon, BD Bioscience, Heidelberg) of both PPs in broth LB medium (Roth, Karlsruhe) at a concentration range of 50–0.024 μM.

[2] = test system: S. aureus COL; test: MIC determination (microbroth dilution); assay type: cell-based; details: Staphylococcus aureus
Experimental: (§2) Cultures were, if not stated differently, incubated at 37 °C with aeration and shaking (150 rpm) in Mueller-Hinton broth (MHB). Bacteria were freshly incubated at the next morning from an overnight pre-culture for actively growing bacteria to an OD600 nm of approx. 0.6. To ensure persistent growth form, the bacteria were grown overnight until a density at OD600 nm > 5.0 was obtained. For biofilm growth, some colonies from a Mueller-Hinton agar (MHA) plate were picked and resuspended in MHB. Cell density has been adjusted to OD600 nm = 0.8, and cells were sown into a flat-bottom 96-well plate to be incubated statically at 37 °C with aeration. Studies were mainly performed with S. aureus Mu50.
as §1

[3] = test system: Escherichia coli ATCC 25922; test: MIC determination (microbroth dilution); assay type: cell-based; details: Escherichia coli
Experimental: as §2, §1

[4] = test system: E. faecalis ATCC 51299; test: MIC determination (microbroth dilution); assay type: cell-based; details: Enterococcus faecalis, ATCC51299
Experimental: as §2, §1

[5] = test system: E. faecium ATCC 700221; test: MIC determination (microbroth dilution); assay type: cell-based; details: Enterococcus faecium, ATCC700221
Experimental: as §2, §1

[6] = test system: S. aureus TCH1516; test: MIC determination (microbroth dilution); assay type: cell-based; details: Staphylococcus aureus
Experimental: as §2, §1

[7] = test system: S. aureus mutant M1 (parental strain ATCC 25923); test: MIC of spontaneously resistant mutant; assay type: cell-based, Staphylococcus aureus; details: for MIC90: Staphylococcus aureus, ATCC25923
Experimental: as §1
(§3) Spontaneous resistant mutants have been generated with 2-bromo-PP and 3-bromo-PP to further investigate the mechanism of antibacterial action and resistance. Since isolation of spontaneous resistant mutants in one step was not successful on solid media containing 2-bromo-PP or 3-bromo-PP (i.e. resistance frequency < 10^−7 at 5-fold MIC), enrichment was done by passaging bacteria daily in liquid media containing increasing sublethal concentrations of PPs. […] Moreover, we observed cross-resistance between PPs since 2-bromo-PP-resistant mutants were also resistant against 3-bromo-PP and vice versa (Fig. 4a; Table 2).

[8] = test system: S. aureus mutant M4 (parental strain Mu50); test: MIC of spontaneously resistant mutant; assay type: cell-based, Staphylococcus aureus; details: for MIC90: Staphylococcus aureus
Experimental: as §1, §3

## Oc1c(Br)cc(Br)cc1Oc1ccc(Br)cc1Br [2-bromo-PP, 4,6-dibromo-2-(2′,4′-dibromophenoxy)phenol]
[1]
  MIC90: 12.5 µM and 6.27 µg/mL
[2]
  MIC90: 0.78 µM and 0.39 µg/mL
[3]; ATCC25922, + 0.1 μM colistin
  MIC90: 0.04 µM and 0.02 µg/mL
[3]; ATCC25922, without colistin
  MIC90: 3.12 µM and 1.57 µg/mL
[4]
  MIC90: 0.78 µM and 0.39 µg/mL
[5]
  MIC90: 0.78 µM and 0.39 µg/mL
[6]
  MIC90: 0.78 µM and 0.39 µg/mL
[7]
  MIC90: 1.56 µM and 0.78 µg/mL
[8]
  MIC90: 1.56 µM and 0.78 µg/mL

## Oc1c(Br)cc(Br)c(Br)c1Oc1ccc(Br)cc1Br [3-bromo-PP, 3,4,6-tribromo-2-(2′,4′-dibromophenoxy)phenol]
[1]
  MIC90: 12.5 µM and 7.26 µg/mL
[2]
  MIC90: 0.78 µM and 0.45 µg/mL
[3]; ATCC25922, + 0.1 μM colistin
  MIC90: 0.04 µM and 0.02 µg/mL
[3]; ATCC25922, without colistin
  MIC90: 6.25 µM and 3.63 µg/mL
[4]
  MIC90: 0.78 µM and 0.45 µg/mL
[5]
  MIC90: 0.78 µM and 0.45 µg/mL
[6]
  MIC90: 0.78 µM and 0.45 µg/mL
[7]
  MIC90: 3.12 µM and 1.81 µg/mL
[7]; mutant M1 raised against 2-bromo-PP, vs parental strain
  MIC shift against 3-bromo-PP: 4 ×
[8]
  MIC90: 3.12 µM and 1.81 µg/mL
[8]; mutant M4 raised against 3-bromo-PP, vs parental strain Mu50
  MIC shift against 3-bromo-PP: 32 ×
